Reference: article PMC5341572, “Self-Assembly and Anti-Amyloid Cytotoxicity Activity of Amyloid beta Peptide Derivatives” (Scientific Reports, 2017)
“And” between values parts separate entries of the source, which are not always exact repeats. Equal values may be shown once. “Also recorded” adds a separate entry of the source.

Key:
[1] = system: SH-SY5Y neuroblastoma cells; assay: MTS neurotoxicity assay with SH-SY5Y cells; format: cell-based; details: 24 h
Protocol: SH-SY5Y neuroblastoma cells were maintained in a 1:1 ratio of Ham’s F12 and Dulbecco’s Modified Eagle Medium with 10% foetal calf serum and penicillin/streptomycin at 37 °C and 5% CO2. At 85–95% confluence the cells were detached from their growth substrate using trypsin and the growth medium was removed following centrifugation of the cells at 500xg for five minutes. The cells were re-suspended in a serum-free medium (Optimem with penicillin/streptomycin) and distributed at 20,000 cells per well in a 96-well plate then incubated at 37 °C, 5% CO2 for a further 24 hours. […] Cells were incubated for a further 24 hours as above and then assayed for cell survival using an MTS based assay (CellTiter 96 AQueous One Solution Cell Proliferation Assay from Promega).

[2] = molecular target: T1, Aβ(1–42) (Homo sapiens, UniProt P05067); assay: CD spectroscopy of Aβ(1–42) secondary structure on addition of peptide; details: Aβ(1–42):peptide molar ratio 1:1.2 for peptide 1 and 1:1.6 for peptide 2; Tris buffer pH 7.4
T1 construct: purchased American Peptide Inc. (Sunnyvale, USA)
Protocol: HFIP was then evaporated under a slow stream of N2.
CD spectra were recorded using a Chirascan spectropolarimeter (Applied Photophysics, UK). Peptide solutions were placed in a cover slip cuvette (1 × 10^−2 or 0.1 mm thick), spectra presented being with absorbance A < 2 at any measured point with a 0.5 nm step, 1 nm bandwidth, and 1 s collection time per step. The CD signal from the background was subtracted from the CD data of the sample solutions. […] CD experiments were performed using a Quartz cuvette with 1mm path length.

[3] = ANS fluorescence assay for critical aggregation concentration (cac); format: physicochemical; details: discontinuity in concentration-dependent ANS fluorescence; 74 μM ANS solution, λex 356 nm, spectra 400-670 nm
Protocol: 8-anilo-1-naphthalenesulfonic acid (ANS) and thioflavin T (ThT) fluorescence were used to locate the critical aggregation concentration (cac). Spectra were recorded with a Varian Cary Eclipse fluorescence spectrometer with samples in 4 mm inner width quartz cuvettes. The ANS fluorophore is a probe sensitive to the hydrophobicity of its surrounding environment, making it suitable to determine the cac. ANS assays were performed measuring spectra from 400 to 670 nm (λex = 356 nm), using a 74 μM ANS solution to solubilize the peptide. ThT fluorescence depends on the formation of amyloid-like structures[36][37] (β-sheet fibrils) and is used for amyloid fibril-forming peptides. For the ThT assay, the spectra were recorded from 460 to 600 nm using an excitation wavelength of λex = 440 nm, and the peptide was dissolved in a 5.0 × 10^−3 wt % ThT solution.

[4] = system: primary rat cortical neurons; assay: MTS neurotoxicity assay with primary neurons; format: cell-based; details: final Aβ 20 μM, 20 h
Protocol: Neuronal cultures were obtained from E16 rat embryos as described[63] with modifications. Briefly, brain cortical tissue was dissected free of meninges and suspended in 0.5 ml of Ca^2+ and Mg^2+ –free Hank’s balanced solution (Gibco). Tissue was then incubated with 4 ml of 0.25% trypsin in a 37 °C water bath for 20 min with agitation. After digestion, tissue was centrifuged at 1000 rpm for 2 min, suspended in DMEM (Gibco) containing 10% fetal calf serum (FCS) (Internegocios) and incubated at 37 °C for 10 min. The pellet was washed with DMEM 10% FCS and allowed to rest for 10 min. Medium was replaced with 1 ml Neurobasal medium (Gibco) and triturated with a 10 ml plastic pipette. […]
Aliquots were dried under a gentle stream of N2 and re-suspended in 20 mM Tris-HCl, pH 7.4, containing 50 mM NaCl (working buffer). […] Cell viability was measured using a (3-(4, 5-dimethylthiazol-2-yl)-5-(3-carboxymethoxyphenyl)-2-(4-sulfophenyl)-2H-tetrazolium) (MTS) reduction assay. Twenty μl of MTS solution containing phenazine ethyl sulfate were added to wells, incubated for 1 h and absorbance was measured at 490 nm. Viability was expressed as the O.D. relative to neurons treated with working buffer alone. […] Data of three MTS assays were analyzed by one-way ANOVA and Bonferroni post hoc test with Graph Pad Prism v. […]

[5] = ESI mass spectrometry of peptide oligomerisation with and without HFIP; format: physicochemical
Protocol: Samples were diluted to 0.029 wt % peptide in both H2O and HFIP:H2O (1:9; v/v). ESI mass spectra were acquired in positive ion mode on a Synapt G2-Si instrument (Waters Corporation, Wilmslow, UK). The employed Z-spray ESI source (Waters Corporation, Wilmslow, UK) was operated at 1.8 kV and the ESI sample solutions were infused at 10 μL/min using a KD Scientific syringe pump (KD Scientific Inc., Holliston, USA). The desolvation and source temperature were 150 °C and 80 °C, respectively, and the cone voltage was set to 40 V. ESI mass spectra were acquired in triplicate in sensitivity mode with the exception of higher resolution mass spectra, which were acquired once in resolution mode with ion mobility separation enabled. For the latter, wave velocity and wave height were set to 650 m/s and 40 V, respectively, and the helium and nitrogen flow rates were 180 and 90 mL/min, respectively. The acquired data was converted to mzML format using the msconvert tool from the ProteoWizard software package. In-house developed software based on the pymzML software library[62] was used to extract the integrated isotopomer signal intensities of interest from the converted data files. The integrated ion signal intensities of the monomer (SM) and all oligomers (SO) were summed for each acquired spectrum to determine the total ion signal intensity of the analysed peptide species (ST):
The relative extent of oligomerisation (EO) was determined by dividing the integrated ion signal intensities of the oligomers (SO) by the total ion signal intensity of the analysed peptide (ST): […]

[6] = peptide to Aβ(1–42) ratio 1:2 (2.5 μM peptide, 5 μM Aβ)
[7] = peptide to Aβ(1–42) ratio 1:5 (1 μM peptide, 5 μM Aβ)
[8] = peptide to Aβ(1–42) ratio 1:20 (0.25 μM peptide, 5 μM Aβ)

T1 sequence (P05067 672-713): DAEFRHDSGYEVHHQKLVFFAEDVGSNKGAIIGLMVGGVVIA

CC(C)C[C@H](NC(=O)[C@@H](N)CCCCN)C(=O)N[C@H](C(=O)N[C@@H](Cc1ccccc1)C(=O)N[C@@H](Cc1ccccc1)C(N)=O)C(C)C [peptide 1, NH2-KLVFF-CONH2]
effect on Aβ(1–42) cytotoxicity, in words [1, 6]: block the cytotoxic effect
effect on Aβ(1–42) cytotoxicity, in words [1, 7]: not very effective; also recorded: no protective effect
effect on Aβ(1–42) cytotoxicity, in words [1, 8]: not very effective; also recorded: no protective effect
β-sheet minimum (216 nm) in CD spectrum of Aβ(1–42) upon addition of peptide [2]: significantly reduced
critical aggregation concentration (cac), ANS assay (hydrophobic collapse) [3]: 1.00 ± 5 × 10^−2 wt% and ~ 1 wt%
effect on viability of Aβ(1–42)-treated neurons ([4]; Aβ:peptide 1:1 (equimolarity), co-incubated 72 h with 100 μM Aβ(1–42)): no effect
improvement of viability of Aβ(1–42)-treated neurons ([4]; Aβ:peptide molar ratio 1:1.5, co-incubated 72 h, p < 0.05): ~ 70%
aggregation state n of self-assemblies (oligomers) seen by ESI MS ([5]; 0.029 wt% peptide): ≤ 7
relative extent of oligomerisation (Eo)H2O ([5]; 0.029 wt% peptide in H2O, positive-ion ESI MS, oligomer signal / total peptide signal, spectra in triplicate): 0.040 ± 0.002
relative extent of oligomerisation (Eo)HFIP ([5]; 0.029 wt% peptide in HFIP:H2O (1:9 v/v), positive-ion ESI MS, oligomer signal / total peptide signal, spectra in triplicate): 0.046 ± 0.002

CC(C)C[C@H](NC(=O)[C@@H](N)CCCCNC(=O)OC(C)(C)C)C(=O)N[C@H](C(=O)N[C@@H](Cc1ccccc1)C(=O)N[C@@H](Cc1ccccc1)C(N)=O)C(C)C [peptide 2, NH2-K(Boc)LVFF-CONH2]
effect of peptide alone on cells, in words ([1]; 2.5 μM peptide in the absence of Aβ(1–42)): negative effect
effect on Aβ(1–42) cytotoxicity, in words [1, 6]: block the cytotoxic effect
effect on Aβ(1–42) cytotoxicity, in words ([1]; peptide to Aβ(1–42) ratio 1:2 (2.5 μM peptide, 5 μM Aβ), listed as Peptide 2): rescues the cells
effect on Aβ(1–42) cytotoxicity, in words [1, 7]: positive effect
effect on Aβ(1–42) cytotoxicity, in words [1, 8]: positive effect
